Paper PMC5796268, “Affinity Purification and Comparative Biosensor Analysis of Citrulline-Peptide-Specific Antibodies in Rheumatoid Arthritis” (International Journal of Molecular Sciences, 2018)

Test system: citrulline-containing peptides / affinity-purified ACPA IgG
Assay: ELISA cross-reaction of affinity-purified ACPA IgG fractions with Cit-peptides
Type: binding, human
Details: ACPA 0.1 mg/mL, OD ratio Cit/Arg peptide
From the text: To see if the affinity-purified anti-peptide antibodies were able to recognize a different peptide, ELISA plates were coated with the individual peptides directly (fibrin, enolase, and EBNA-2) or indirectly, using neutravidin-coated plates and biotinylated peptides (filaggrin, collagen II, or vimentin) and the binding of the affinity-purified IgG fractions was monitored (Figure 2).
Figure 2 Reactivity of affinity-purified IgG fractions with the relevant and irrelevant citrulline-containing peptides. OD ratios that are OD with Cit/OD with Arg-containing peptides are shown. Cut-off values for each Cit- and Arg-containing peptide pair were calculated from OD indexes of 120 healthy samples (the means of OD indexes + 2 × SD). These were below 1.5 for all peptides. Results of a typical experiment.
ELISA was used to determine serum IgG ACPA concentrations and to test ACPA cross-reactions. The biotinylated, citrulline- or arginine-containing filaggrin19, vimentin, collagen II and the multi-epitope peptides were added at 1 µg/mL to the Medisorp plates (Greiner Bio-One GmbH, Kremsmünster, Germany) pre-coated with 5 µg/mL Neutravidin (Pierce Biotechnology, Rockford, IL, USA) overnight, at 4 °C, and then the plates were incubated for 1 h at 37 °C. […]
Serum samples were diluted 1:100. […] Plates were read at 450 nm with THERMO Multiscan EX ELISA-reader.

“H-Ttds-AXAXGSGSGXGXG-NH2 [multi-epitope, novel peptide consisting of two-two copies of Ala-Cit and Cit-Gly motifs separated with a neutral spacer, SGSG]” was tested, and the “binding of peptide to other affinity-purified ACPA IgG” value was “bound to almost all other ACPA IgG, fibrin β was the exception”.
